Results taken from US9265189B2, “Method for reducing damage by harmful organisms in corn cultivation” (SUMITOMO CHEMICAL COMPANY, LIMITED, priority 2012, dated 2016).

Tests used:
Assay type in all cases: in vivo
Rhopalosiphum padi = experiment: Green house cup test, furrow drip treatment, Rhopalosiphum padi on corn (Example 6); conditions: insects released 10 days after seeding, counted 7 days after insect releasing, 100×(A−B)/A
Method: A plastic cup (diameter 7 cm) having a volume of 390 ml was filled with a soil, a furrow was formed to a depth of 3 cm from the soil surface, the formed furrow was drip-treated with each of water-diluted liquids of a thiamethoxam water soluble powder (using a 10.0% preparation, trade name: Actara Water Soluble Powder, manufactured by Syngenta Japan K.K.), an imidacloprid water dispersible granule (using a 50.0% preparation, trade name: Admire Water dispersible Granule, manufactured by Bayer CropScience K.K.) and a thiacloprid water dispersible granule (using a 30.0% preparation, trade name: Bariard Water Dispersible Granule, manufactured by Bayer CropScience K.K.) so as to achieve the application amount described in Table 6, and then seeded with corn (variety name: Pioneer 32K61, hybrid variety) at a rate of one grain per cup, and the soil on the side of the furrow was gathered together to close the furrow. Corn was grown in a usual green house.
10 days after seeding of corn, 10 insects of Rhopalosiphum padi were released in each cup. This is called a treatment section.
On the other hand, except that a chemical was not applied, corn was grown in a usual green house in the same manner as in the treatment section, and 10 insects of Rhopalosiphum padi were released. This is called a non-chemical-treatment section.
7 days after insect releasing, the number of Rhopalosiphum padi was investigated, and a preventive value was calculated using the following equation. The results are shown in Table 6. preventive value=100×(A−B)/A
A: number of insects during investigation of non-chemical-treatment section
B: number of insects during investigation of treatment section

[1] = system: Diabrotica virgifera virgifera and Agriotes lineatus; experiment: Field test, lodge rate, imidacloprid in-furrow, herbicides plus cyprosulfamide on soil (Example 8); conditions: imidacloprid 120 g/ha in-furrow spray 125 L/ha, thiuram-treated seed, 165 days after application; example in present tense
Text: (§1) A chemical fertilizer (N:P:K=15:15:15) is applied to the soil surface of a cultivated land at 300 kg/ha, and the cultivated land is then plowed. 7 days after fertilization, for suppressing generation of weeds, the soil surface of the whole cultivated land is spray-treated with a mixed liquid containing thiencarbazone-methyl and isoxaflutole, each of which being a herbicide, and cyprosulfamide which is a safener at 150 L/ha so that the application amounts of thiencarbazone-methyl, isoxaflutole and cyprosulfamide are 9.2 g/ha, 23 g/ha and 15 g/ha, respectively. 21 days after fertilization, using a pneumatic seeder (disk furrow opener) equipped with a power sprayer, a cultivated land is ditched at intervals of 75 cm to a depth of 3 cm from the soil surface, and the furrow is seeded with corn (Zea Mays; hybrid variety). […] 165 days after application of the aqueous suspension of imidacloprid, the number of plants of corn lodged due to damage by Diabrotica virgifera virgifera and Agriotes lineatus in the furrows of the treatment section and the non-treatment section, for which the number of plants of corn germinated is investigated, is investigated, a lodge rate is calculated in accordance with the following equation, and then an average lodge rate for the four investigation sections is determined.

[2] = system: Diabrotica virgifera virgifera and Agriotes lineatus; experiment: Field test, lodge rate, imidacloprid and cyprosulfamide in-furrow (Example 10); conditions: imidacloprid 120 g/ha together with cyprosulfamide 15 g/ha in-furrow spray 125 L/ha, thiuram-treated seed, 165 days after application; example in present tense
Text: as §1, with “herbicide,” for “herbicide, and cyprosulfamide which is a safener”, “of thiencarbazone-methyl and” for “of thiencarbazone-methyl,”, “isoxaflutole” for “isoxaflutole and cyprosulfamide”, “9.2” for “9.2 g/ha, 23”, “and 23” for “and 15”, “variety). The furrow is seeded at intervals of 20 cm using, as a seed of corn, one treated with thiuram. A seeding density of corn is 70000 seeds/ha.” for “variety).”

N#C/N=C1\SCCN1Cc1ccc(Cl)nc1 [Thiacloprid]
Preventive value (Rhopalosiphum padi; application amount 20 g/ha): 100 | Preventive value (Rhopalosiphum padi; application amount 200 g/ha): 100

CN1COCN(Cc2cnc(Cl)s2)/C1=N\[N+](=O)[O-] [Thiamethoxam]
Preventive value (Rhopalosiphum padi; application amount 20 g/ha): 100 | Preventive value (Rhopalosiphum padi; application amount 200 g/ha): 100

O=[N+]([O-])NC1=NCCN1Cc1ccc(Cl)nc1 [Imidacloprid]
Preventive value (Rhopalosiphum padi; application amount 20 g/ha): 100 | Preventive value (Rhopalosiphum padi; application amount 200 g/ha): 100 | Lodge rate compared to non-treatment section [1]: low lodge rate as compared to the non-treatment section | Lodge rate compared to non-treatment section [2]: low lodge rate as compared to the non-treatment section
